# Source: patent US20240358731A1, “SUMO PATHWAY AS AN OXYGEN SENSOR RELEVANT TO THE PATHOPHYSIOLOGY OF PULMONARY ARTERY HYPERTENSION AND CARDIAC ARRHYTHMIA” (Northeastern University, priority 2023, published 2024)
# Substitutions are numbered along the chain they refer to.
# Columns and labels:
# [1] = target: T1, Kir2.1-mediated IK1 current (Rattus norvegicus, UniProt Q64273); assay: Whole-cell patch-clamp of IK1 in rat ventricular cardiomyocytes under acute hypoxia; assay type: cell-based
# T1 construct: endogenous in cells; host or cells: rat ventricular cardiomyocytes (RVCMs)
# T1 sequence (Q64273 1-427): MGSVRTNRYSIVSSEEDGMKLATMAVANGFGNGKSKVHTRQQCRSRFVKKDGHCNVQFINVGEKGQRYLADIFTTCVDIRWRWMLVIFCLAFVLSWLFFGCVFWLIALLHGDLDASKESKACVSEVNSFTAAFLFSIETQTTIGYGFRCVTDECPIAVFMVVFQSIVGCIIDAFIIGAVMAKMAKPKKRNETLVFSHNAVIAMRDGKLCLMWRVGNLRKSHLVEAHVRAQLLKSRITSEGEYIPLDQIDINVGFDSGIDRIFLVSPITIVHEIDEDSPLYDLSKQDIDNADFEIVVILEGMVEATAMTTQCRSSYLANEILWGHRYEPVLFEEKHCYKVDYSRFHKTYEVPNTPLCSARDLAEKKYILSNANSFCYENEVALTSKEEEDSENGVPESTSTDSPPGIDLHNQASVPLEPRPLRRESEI
# Description: IK1 in rat ventricular cardiomyocytes studied by whole-cell patch-clamp. Hypoxia was a drop in O2 from ambient levels to 2%, measured at the cell. The time-course of hypoxic-inhibition was studied by recording the magnitude of IK1 every second. Cells were studied with the following pipette solutions: control, SUMO1 (1 μM) or SENP1 (2 μM). IK1 was blocked by the addition of 3 mM Ba^2+. […] Left, representative current sweeps; right, a representative time course showing the kinetics of hypoxic inhibition in cardiomyocytes studied with control pipette solution. The inhibition is precluded by including SENP1 (2 μM, magenta) in the recording pipette. The reverse ramp recording protocol is inset. […] SENP1 augments IK1 and protects the current from hypoxia. Data are from 8-10 RVCMs per group, **** P<0.0001, paired, two-tailed Student's […]. […] Representative data are shown with DAPI labeled nuclei and PLA interactions. Summary data are obtained from multiple experiments each with multiple fields of view containing 20-30 nuclei. The scale bar is 10 μm.
# (§1) To knockdown Kir2.1 expression, RVCMs were transduced with lentiviral particles carrying cGFP and shRNA targeting KCNJ2-mRNA for the channel. Kir2.1 knockdown cells (Kir2.1kd-CMs) were identified by expression of cGFP. Cells were studied with control pipette solution, or with pipette solutions containing purified SUMO1 (1 μM) or SENP1 (2 μM). Where indicated, the control pipette solution contained diC8 PIP2. Paired patch-clamp data were analyzed by Students t-test; ***, P<0.01. […] Kir2.1kd-CMs are identified by expression of GFP (inset, scale bar=10 μm). […] The arrow indicates the change in current-magnitude between exposure to ambient O2 and 2% O2 in the same cell. Right, Concentration-response curve showing that including diC8-PIP2 in the pipette opposes hypoxic-inhibition of IK1 in control RVCMs and RVCMs expressing the scrambled shRNA. The hypoxic-response is diminished in Kir2.1kd-CMs. Data are mean±s.d. for 7-8 cells per condition. […] Current inhibition is diminished when SENP1 is included in the recording pipette and is not observed when SUMO-insensitive Kir2.1-K49Q channels are studied. Data are mean±s.d. for 6 cells per condition.
# Hypoxic-inhibition of Kir2.1 in cardiomyocytes via SUMOylation. We studied the effects of acute hypoxia on IK1 in rat ventricular cardiomyocytes (RVCMs) by whole cell patch-clamp recording. […] Both the hypoxia-sensitive and insensitive components of the current were blocked by Ba^2+ (3 mM), consistent with the known role of Kir2 channels in mediating IK1 (FIG. 1a). To determine if SUMOylation mediates the hypoxic inhibition of IK1 we introduced purified SENP1 (2 μM) to the cytosol via the recording pipette. […] Both the SUMO1 and hypoxia-mediated inhibition of IK1 remained stable throughout the remainder of the experiment (up to 10 mins). […] Next, we visualized and quantified the interactions between native Kir2.1 and SUMO1 in RVCMs using the proximity-ligation association (PLA) assay with antibodies we validated in heterologous cells by Western blot. […] The validated Kir2 antibodies were paired with SUMO1 antibodies that we have tested and utilized before. Under control conditions, interactions were observed between Kir2.1 and SUMO1, but not between Kir2.2 or Kir2.3 and SUMO1. […] Although cardiomyocytes are typically cultured at 21% O2, the O2-level in the myocardium is estimated to be in the range of 5-10% O2, under physiological conditions.
# Hypoxic-inhibition of IK1/Kir2.1 is reduced by diC8-PIP2 in a concentration-dependent manner. We have shown that adding the exogenous, soluble PIP2 analog diC8-PIP2 into the patch-pipette opposes hypoxic-inhibition of IK1 (FIG. 4). […] As before, the effects of hypoxia were ameliorated by SENP1 (2 μM) and were not observed in the SUMO and hypoxia insensitive Kir2.1-K49Q channels (FIG. 4D).
# Ubc9 = Ubc9 (Homo sapiens, UniProt P63279); conditions: cited from earlier work
# [2] = target: T2, SUMO activating enzyme (SAE) (Homo sapiens, UniProt Q9UBE0+Q9UBT2); conditions: cited from earlier work
# T2 sequence (Q9UBE0 1-346): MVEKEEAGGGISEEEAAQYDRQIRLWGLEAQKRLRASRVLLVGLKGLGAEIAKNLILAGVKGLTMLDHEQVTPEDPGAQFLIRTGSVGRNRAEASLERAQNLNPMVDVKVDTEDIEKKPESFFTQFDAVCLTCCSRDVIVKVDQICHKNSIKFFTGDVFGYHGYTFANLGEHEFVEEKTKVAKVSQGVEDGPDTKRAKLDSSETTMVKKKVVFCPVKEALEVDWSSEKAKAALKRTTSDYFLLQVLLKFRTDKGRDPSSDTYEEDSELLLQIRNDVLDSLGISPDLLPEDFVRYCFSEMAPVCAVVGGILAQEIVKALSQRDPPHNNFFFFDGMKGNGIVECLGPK
# T2 sequence (Q9UBT2 1-640): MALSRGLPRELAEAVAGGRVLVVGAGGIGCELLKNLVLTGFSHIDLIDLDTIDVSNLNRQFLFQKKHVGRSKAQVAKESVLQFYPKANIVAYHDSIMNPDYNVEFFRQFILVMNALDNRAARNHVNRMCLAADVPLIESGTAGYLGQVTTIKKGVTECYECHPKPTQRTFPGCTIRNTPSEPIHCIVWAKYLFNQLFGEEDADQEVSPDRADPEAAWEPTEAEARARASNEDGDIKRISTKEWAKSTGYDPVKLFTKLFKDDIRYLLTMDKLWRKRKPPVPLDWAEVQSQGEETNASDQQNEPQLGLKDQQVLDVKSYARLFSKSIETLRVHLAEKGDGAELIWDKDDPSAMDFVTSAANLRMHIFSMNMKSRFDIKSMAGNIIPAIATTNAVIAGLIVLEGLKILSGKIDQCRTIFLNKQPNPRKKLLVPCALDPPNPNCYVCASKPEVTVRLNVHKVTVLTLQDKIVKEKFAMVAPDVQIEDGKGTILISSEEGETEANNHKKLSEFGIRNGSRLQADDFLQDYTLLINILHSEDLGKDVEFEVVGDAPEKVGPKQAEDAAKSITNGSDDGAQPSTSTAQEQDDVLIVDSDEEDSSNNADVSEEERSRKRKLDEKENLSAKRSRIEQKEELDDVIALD
# E1 and E2 = conditions: cited from earlier work
# Kir2.1 channels = target: T3, Kir2.1 channels (Homo sapiens, UniProt P63252); assay: Whole-cell patch-clamp of heterologous Kir2.1 channels in HEK293T cells under hypoxia; assay type: cell-based; conditions: agent in recording pipette (SENP1 2 μM)
# T3 construct: expressed in transfected cells; host or cells: HEK293T
# T3 sequence (P63252 1-427): T1 sequence (Q64273 1-427) with S119G, C336Y, E388D, S402T, G405D
# Description: as §1
# Hypoxic-inhibition of IK1/Kir2.1 is reduced by diC8-PIP2 in a concentration-dependent manner. We have shown that adding the exogenous, soluble PIP2 analog diC8-PIP2 into the patch-pipette opposes hypoxic-inhibition of IK1 (FIG. 4). […]
# SUMOylation = conditions: cited from earlier work
# Kir2.4 = target: T4, Kir2.4 (Homo sapiens, UniProt Q9UNX9); assay: Whole-cell patch-clamp of Kir2.4 in HEK293 cells with SUMO1 or SENP1 in the recording pipette; assay type: cell-based; set-up: expressed in transfected cells; conditions: 1 nM in pipette; 140 mM bath K+; within one-minute of breakthrough
# T4 sequence (Q9UNX9 1-436): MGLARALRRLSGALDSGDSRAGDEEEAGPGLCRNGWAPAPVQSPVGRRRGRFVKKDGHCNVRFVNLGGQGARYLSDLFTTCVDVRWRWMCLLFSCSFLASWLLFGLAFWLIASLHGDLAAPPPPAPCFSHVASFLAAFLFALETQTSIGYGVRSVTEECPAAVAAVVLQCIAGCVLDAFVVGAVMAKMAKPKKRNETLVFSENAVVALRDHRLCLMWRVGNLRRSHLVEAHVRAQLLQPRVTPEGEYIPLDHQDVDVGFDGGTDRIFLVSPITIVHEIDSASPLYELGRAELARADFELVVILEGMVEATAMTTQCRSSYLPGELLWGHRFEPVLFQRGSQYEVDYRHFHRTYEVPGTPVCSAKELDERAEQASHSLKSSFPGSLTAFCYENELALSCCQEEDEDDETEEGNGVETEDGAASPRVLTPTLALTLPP
# Description: Currents were measured at −80 mV in 140 mM external K+.
# Similarly, currents were no longer enhanced by SENP1.
# SUMOylation regulates Kir2.4 channels in mammalian cells. Next, we tested if SUMO could regulate Kir2.4 channels in mammalian cells. Kir2.4 channels were transiently expressed in HEK293 cells and studied in whole-cell mode with 140 mM bath [K]^+, using a ramp protocol from −80 to +80 mV. Purified SUMO1 or SENP1 peptide were introduced via the recording pipette. At 1 nM, SUMO1, but not heat-denatured SUMO1, inhibited Kir2.4 currents by ˜40 and 60%, respectively, within one-minute of breakthrough. In contrast, 1 nM SENP1 increased the current by ˜50% (FIG. 7).
# The PIP2-dependence of SUMO-regulation. Using the 5-ptaseOCRL system, we depleted PIP2 in HEK293 cells expressing Kir2.4 and studied currents with 1 nM SUMO1, or SENP1 in the recording pipette. When currents were recorded after 5-min activation of the optogenetic probe, 5-ptaseOCRL, the inhibitory effect of 1 nM SUMO1 on Kir2.4 was reduced from ˜40% to ˜7% (FIG. 9). Current augmentation observed with SENP1 in the pipette was reduced from […] to ˜6%. These preliminary data support the conclusion that SUMO-regulation of Kir2.4 channels is PIP2-dependent.
# Ubc9, sequence (P63279 whole entry): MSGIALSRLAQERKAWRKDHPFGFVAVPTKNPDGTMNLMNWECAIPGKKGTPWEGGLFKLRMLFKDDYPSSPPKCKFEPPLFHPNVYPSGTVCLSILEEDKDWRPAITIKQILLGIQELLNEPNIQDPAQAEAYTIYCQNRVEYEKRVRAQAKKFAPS
molecule,measurement,setting,value
[Ba+2] [Ba^2+],block of IK1 (hypoxia-sensitive and insensitive components),[1]; 3 mM,blocked
O=c1cc(-c2ccc(O)c(O)c2O)oc2ccccc12 [Compound 2-D08],Ubc9 (SUMO-E2) inhibition,Ubc9,inhibits Ubc9 by preventing the transfer of SUMO from Ubc9 to the substrate
c1coc(-c2cc(CNc3ncnc4sc5cnccc5c34)no2)c1 [Compound 22],formation of the E1-SUMO complex,[2],unable to block formation of the E1-SUMO complex
same,selectivity for the SUMOylation pathway,Ubc9,modest selectivity for the SUMOylation pathway
Cc1cc(NC(=O)c2ccc(S(=O)(=O)N3CCC(C)CC3)cc2)ccc1NC(=O)Cn1cccn1 [Compound 26],formation of the SUMO-E2 complex,Ubc9,inhibited formation of the SUMO-E2 complex
C[C@@H](C(=O)Nc1ccc(NC(=O)c2ccc(C(=O)c3ccccc3)cc2)cc1)n1cccn1 [Compound 27],formation of the SUMO-E2 complex,Ubc9,inhibited formation of the SUMO-E2 complex
COC1=C(N)C(=O)c2[nH]cc(CO)c2C1=N [Compound 61],ROS generation and E1/E2 crosslinking,E1 and E2,generated ROS and subsequent E1 and E2 crosslinking
CCCCCCCC(=O)OC[C@H](COP(=O)(O)O[C@@H]1[C@H](O)[C@H](O)[C@@H](OP(=O)(O)O)[C@H](OP(=O)(O)O)[C@H]1O)OC(=O)CCCCCCC [diC8-PIP2],hypoxic inhibition of IK1,"[1]; 100 μM diC8-PIP2 in pipette, wild-type RVCMs, ~40% without",~15%
same,effect on hypoxic inhibition of IK1,"[1]; ambient O2 to 2% O2, agent in pipette (SENP1 2 μM, SUMO1 1 μM, diC8-PIP2) or pretreatment (TAK981)",diminished the hypoxic-inhibition of IK1 in a concentration-dependent manner
same,effect on hypoxic inhibition of Kir2.1 channels,Kir2.1 channels,concentration-dependent reduction in hypoxic inhibition
CSC1=C(N)C(=O)c2[nH]cc(CO)c2C1=N [macrophilone A],ROS generation and E1/E2 crosslinking,E1 and E2,generated ROS and subsequent E1 and E2 crosslinking
same,SUMOylation inhibition,SUMOylation,demonstrated SUMOylation inhibitory activity through formation of ROS
CO/C(=C/C(=O)O)[C@H]1c2cc3ccc(-c4ccc5cc6c(c(O)c5c4O)C(=O)C[C@@](C)(O)[C@H]6/C(=C\C(=O)O)OC)c(O)c3c(O)c2C(=O)C[C@@]1(C)O [spectomycin B1],Ubc9 (SUMO-E2) inhibition,Ubc9,inhibitors of SUMO-E2
chaetochromin A,Ubc9 (SUMO-E2) inhibition,Ubc9,inhibitors of SUMO-E2
"heat-denatured SUMO1: heat-denatured SUMO1 peptide, control",inhibition of Kir2.4 currents,Kir2.4,not
viomellein,Ubc9 (SUMO-E2) inhibition,Ubc9,inhibitors of SUMO-E2
